Assay results: ChEMBL document CHEMBL5291721, “A preclinical secondary pharmacology resource illuminates target-adverse drug reaction associations of marketed drugs” (Nat Commun, 2023)

How the values were obtained:
[1] = target: 5-hydroxytryptamine receptor 2B (Homo sapiens, UniProt P41595); assay type: functional, cell-based
[2] = target: T1, 5-hydroxytryptamine receptor 1A (Homo sapiens, UniProt P08908); assay type: functional, cell-based
T1 sequence (P08908 whole entry): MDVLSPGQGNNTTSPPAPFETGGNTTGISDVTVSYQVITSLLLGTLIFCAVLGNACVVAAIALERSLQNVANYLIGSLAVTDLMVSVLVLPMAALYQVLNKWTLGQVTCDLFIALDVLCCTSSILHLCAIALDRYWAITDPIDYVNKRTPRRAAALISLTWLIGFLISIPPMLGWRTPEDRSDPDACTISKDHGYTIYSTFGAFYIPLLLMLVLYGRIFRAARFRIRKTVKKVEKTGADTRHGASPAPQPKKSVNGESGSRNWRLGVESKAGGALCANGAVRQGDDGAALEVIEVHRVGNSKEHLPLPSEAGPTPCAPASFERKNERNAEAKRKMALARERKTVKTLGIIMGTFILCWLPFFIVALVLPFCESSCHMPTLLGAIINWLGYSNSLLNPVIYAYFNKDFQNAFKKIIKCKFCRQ

[3] = target: T2, Alpha-2A adrenergic receptor (Homo sapiens, UniProt P08913); assay type: functional, cell-based
T2 sequence (P08913 whole entry): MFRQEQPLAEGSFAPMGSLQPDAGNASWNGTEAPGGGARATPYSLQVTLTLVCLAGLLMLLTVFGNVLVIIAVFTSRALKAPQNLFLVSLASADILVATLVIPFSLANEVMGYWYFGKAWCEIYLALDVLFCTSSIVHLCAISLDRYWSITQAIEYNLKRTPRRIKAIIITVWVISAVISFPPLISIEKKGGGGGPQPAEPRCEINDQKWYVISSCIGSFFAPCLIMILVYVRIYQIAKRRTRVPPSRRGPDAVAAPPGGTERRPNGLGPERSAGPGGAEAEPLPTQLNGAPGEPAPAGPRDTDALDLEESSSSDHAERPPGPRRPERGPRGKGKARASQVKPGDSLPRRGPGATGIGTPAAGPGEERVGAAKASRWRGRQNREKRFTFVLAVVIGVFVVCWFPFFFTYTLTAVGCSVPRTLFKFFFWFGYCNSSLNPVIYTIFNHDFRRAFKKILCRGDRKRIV

[4] = target: T3, 5-hydroxytryptamine receptor 2C (Homo sapiens, UniProt P28335)
T3 sequence (P28335 whole entry): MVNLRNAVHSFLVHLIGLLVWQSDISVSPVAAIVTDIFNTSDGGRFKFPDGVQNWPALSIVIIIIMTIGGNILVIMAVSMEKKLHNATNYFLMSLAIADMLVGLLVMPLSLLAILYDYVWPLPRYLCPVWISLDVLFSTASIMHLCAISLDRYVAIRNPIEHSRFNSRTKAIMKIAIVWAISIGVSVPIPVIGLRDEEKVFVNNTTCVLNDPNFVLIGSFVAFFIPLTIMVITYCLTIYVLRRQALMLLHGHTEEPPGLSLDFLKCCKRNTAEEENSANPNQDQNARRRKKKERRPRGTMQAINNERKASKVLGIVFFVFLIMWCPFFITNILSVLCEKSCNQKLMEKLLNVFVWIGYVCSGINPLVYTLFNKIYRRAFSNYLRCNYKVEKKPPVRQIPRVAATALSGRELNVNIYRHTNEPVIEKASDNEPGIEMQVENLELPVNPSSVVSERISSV

[5] = target: T4, Estrogen receptor (Homo sapiens, UniProt P03372)
T4 sequence (P03372 whole entry): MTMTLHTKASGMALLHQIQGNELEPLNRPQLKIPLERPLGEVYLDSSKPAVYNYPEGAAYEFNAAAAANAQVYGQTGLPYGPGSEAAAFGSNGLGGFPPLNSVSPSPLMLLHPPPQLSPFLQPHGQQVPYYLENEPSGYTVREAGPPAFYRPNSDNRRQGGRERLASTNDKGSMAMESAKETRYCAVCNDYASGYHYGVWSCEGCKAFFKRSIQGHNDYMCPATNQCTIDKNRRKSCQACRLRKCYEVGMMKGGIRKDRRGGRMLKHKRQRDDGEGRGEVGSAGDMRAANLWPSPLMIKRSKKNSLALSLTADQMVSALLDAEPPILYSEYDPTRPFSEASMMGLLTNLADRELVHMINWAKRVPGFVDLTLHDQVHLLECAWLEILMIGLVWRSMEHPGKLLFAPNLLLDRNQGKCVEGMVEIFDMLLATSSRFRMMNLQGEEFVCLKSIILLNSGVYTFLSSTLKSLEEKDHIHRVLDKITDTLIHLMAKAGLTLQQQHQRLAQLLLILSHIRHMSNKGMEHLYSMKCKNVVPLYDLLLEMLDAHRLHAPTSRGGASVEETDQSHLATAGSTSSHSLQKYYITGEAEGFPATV

[6] = target: Voltage-gated inwardly rectifying potassium channel KCNH2 (Homo sapiens, UniProt Q12809); assay type: functional
Sequence of Voltage-gated inwardly rectifying potassium channel KCNH2 (Q12809 whole entry): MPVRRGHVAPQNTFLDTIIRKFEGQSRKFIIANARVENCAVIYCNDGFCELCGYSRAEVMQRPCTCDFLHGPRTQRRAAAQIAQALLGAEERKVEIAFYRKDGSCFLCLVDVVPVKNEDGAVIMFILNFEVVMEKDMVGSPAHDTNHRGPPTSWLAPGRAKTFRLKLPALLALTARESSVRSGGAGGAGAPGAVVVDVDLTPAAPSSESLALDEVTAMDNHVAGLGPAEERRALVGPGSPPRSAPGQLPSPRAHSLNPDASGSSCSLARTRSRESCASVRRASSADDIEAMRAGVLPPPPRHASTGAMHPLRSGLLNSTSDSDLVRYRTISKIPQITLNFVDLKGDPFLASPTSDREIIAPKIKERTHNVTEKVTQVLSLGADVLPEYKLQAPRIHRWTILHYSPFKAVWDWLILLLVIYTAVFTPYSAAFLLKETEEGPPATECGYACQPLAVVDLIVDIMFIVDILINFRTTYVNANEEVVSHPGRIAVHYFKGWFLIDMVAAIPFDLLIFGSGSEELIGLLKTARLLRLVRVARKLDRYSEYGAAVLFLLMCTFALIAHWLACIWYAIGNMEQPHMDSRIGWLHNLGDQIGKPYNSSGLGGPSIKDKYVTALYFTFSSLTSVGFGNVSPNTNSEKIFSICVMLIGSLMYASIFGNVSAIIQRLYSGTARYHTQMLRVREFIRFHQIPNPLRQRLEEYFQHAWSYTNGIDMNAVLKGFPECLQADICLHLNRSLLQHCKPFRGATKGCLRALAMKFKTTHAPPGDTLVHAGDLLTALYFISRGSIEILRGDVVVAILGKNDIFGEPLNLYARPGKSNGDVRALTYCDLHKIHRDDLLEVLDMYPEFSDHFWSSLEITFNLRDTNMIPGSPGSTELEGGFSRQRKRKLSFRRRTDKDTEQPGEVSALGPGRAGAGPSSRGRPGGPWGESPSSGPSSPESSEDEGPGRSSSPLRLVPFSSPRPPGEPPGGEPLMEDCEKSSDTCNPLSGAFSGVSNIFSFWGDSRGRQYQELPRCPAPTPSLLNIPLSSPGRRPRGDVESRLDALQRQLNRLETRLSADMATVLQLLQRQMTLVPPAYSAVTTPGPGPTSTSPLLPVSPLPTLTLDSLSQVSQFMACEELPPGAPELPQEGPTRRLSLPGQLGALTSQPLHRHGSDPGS

[7] = target: Sodium-dependent noradrenaline transporter (Homo sapiens, UniProt P23975)
Sequence of Sodium-dependent noradrenaline transporter (P23975 whole entry): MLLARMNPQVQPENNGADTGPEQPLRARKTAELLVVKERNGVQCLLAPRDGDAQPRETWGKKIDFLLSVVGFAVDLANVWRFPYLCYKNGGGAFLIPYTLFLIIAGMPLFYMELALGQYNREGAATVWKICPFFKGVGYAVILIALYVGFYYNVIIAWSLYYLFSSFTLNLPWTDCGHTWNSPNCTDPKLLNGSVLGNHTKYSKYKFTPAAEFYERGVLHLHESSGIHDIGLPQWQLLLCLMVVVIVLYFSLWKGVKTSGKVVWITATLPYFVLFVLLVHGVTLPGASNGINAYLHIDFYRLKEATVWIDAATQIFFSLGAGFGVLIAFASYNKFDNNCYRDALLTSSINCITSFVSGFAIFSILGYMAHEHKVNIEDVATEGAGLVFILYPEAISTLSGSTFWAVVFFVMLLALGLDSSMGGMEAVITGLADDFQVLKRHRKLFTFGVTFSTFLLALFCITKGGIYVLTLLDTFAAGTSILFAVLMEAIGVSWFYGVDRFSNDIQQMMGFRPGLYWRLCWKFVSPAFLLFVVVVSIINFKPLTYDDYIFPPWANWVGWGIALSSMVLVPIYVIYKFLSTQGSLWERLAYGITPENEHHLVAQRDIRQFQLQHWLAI

[8] = target: Beta-2 adrenergic receptor (Homo sapiens, UniProt P07550)
[9] = target: T5, Adenosine receptor A1 (Homo sapiens, UniProt P30542)
T5 sequence (P30542 whole entry): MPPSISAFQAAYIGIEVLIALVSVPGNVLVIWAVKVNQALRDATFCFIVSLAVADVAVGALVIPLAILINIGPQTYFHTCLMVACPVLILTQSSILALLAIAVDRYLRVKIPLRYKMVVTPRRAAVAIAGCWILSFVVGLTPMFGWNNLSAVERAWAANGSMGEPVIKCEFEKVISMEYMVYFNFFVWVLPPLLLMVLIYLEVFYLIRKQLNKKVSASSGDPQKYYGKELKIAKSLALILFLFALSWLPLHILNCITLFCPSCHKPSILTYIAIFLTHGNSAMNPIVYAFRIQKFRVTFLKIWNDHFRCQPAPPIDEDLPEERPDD

[10] = target: Cannabinoid receptor 1 (Homo sapiens, UniProt P21554); assay type: functional, cell-based
Sequence of Cannabinoid receptor 1 (P21554 whole entry): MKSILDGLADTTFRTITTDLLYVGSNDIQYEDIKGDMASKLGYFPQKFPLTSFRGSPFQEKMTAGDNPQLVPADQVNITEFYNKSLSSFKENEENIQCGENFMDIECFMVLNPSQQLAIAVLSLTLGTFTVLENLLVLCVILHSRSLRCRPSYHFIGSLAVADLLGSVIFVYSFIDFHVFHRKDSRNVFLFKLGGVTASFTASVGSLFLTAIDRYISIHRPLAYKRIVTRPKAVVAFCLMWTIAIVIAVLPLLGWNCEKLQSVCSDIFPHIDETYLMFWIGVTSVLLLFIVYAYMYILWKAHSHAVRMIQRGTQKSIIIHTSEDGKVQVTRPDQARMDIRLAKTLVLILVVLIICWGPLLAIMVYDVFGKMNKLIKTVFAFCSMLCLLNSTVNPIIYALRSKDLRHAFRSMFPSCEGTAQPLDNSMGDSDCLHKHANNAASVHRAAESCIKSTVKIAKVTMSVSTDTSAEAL

[11] = target: T6, Adenosine receptor A3 (Homo sapiens, UniProt P0DMS8)
T6 sequence (P0DMS8 whole entry): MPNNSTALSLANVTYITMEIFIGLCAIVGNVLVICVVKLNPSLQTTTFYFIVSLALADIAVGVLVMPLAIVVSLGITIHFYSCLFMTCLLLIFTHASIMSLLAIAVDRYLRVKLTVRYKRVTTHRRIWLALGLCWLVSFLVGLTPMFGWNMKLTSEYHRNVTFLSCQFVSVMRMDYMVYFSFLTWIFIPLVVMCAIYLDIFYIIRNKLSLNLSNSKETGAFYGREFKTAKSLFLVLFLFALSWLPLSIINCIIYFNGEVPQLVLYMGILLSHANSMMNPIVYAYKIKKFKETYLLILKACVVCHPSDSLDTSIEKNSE
Further: assay procedure not described here.

Sequence of 5-hydroxytryptamine receptor 2B (P41595 whole entry): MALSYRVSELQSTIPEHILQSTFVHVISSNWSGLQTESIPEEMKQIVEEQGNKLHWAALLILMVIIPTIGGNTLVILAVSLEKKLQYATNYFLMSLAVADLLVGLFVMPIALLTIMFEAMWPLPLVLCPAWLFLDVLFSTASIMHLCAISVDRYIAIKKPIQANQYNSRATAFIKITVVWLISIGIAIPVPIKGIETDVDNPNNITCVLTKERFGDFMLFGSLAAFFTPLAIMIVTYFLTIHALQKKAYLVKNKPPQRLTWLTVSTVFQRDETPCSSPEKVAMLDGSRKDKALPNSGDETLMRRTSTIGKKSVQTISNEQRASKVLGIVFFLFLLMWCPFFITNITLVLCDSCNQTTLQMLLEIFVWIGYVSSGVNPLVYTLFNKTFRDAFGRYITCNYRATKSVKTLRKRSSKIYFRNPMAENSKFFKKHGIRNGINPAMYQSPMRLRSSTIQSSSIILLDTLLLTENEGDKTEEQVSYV

Row | Molecule | AC50 [1] | AC50 [2] | AC50 [3] | AC50 [4] | AC50 [5] | AC50 ([6]; read-out: AC50) | AC50 [7] | AC50 [8] | AC50 [9] | AC50 [10] | AC50 [11] | AC50 ([6]; human, cellular components)
1 | CN[C@@H](C)[C@H](O)c1ccccc1 [EPHEDRINE] | > 10 µM | > 10 µM | > 10 µM | > 30 µM | > 30 µM | > 30 µM | > 10 µM | > 10 µM | > 30 µM | > 30 µM | > 30 µM | –
2 | CCCCCN(C)CCC(O)(P(=O)(O)O)P(=O)(O)O [IBANDRONIC ACID] | > 30 µM | > 10 µM | > 30 µM | > 30 µM | > 30 µM | > 30 µM | > 30 µM | > 30 µM | > 30 µM | > 30 µM | > 30 µM | –
3 | C1=Cc2cccc(OCC3CNCCO3)c2C1 (centres undefined) [INDELOXAZINE] | 5.3 µM | > 30 µM | > 30 µM | > 10 µM | > 30 µM | > 30 µM | 0.7 µM | > 30 µM | > 30 µM | > 30 µM | > 30 µM | –
4 | C#C[C@]1(O)CC[C@H]2[C@@H]3CCC4=CCCC[C@@H]4[C@H]3CC[C@@]21C [LYNESTRENOL] | > 30 µM | > 30 µM | > 30 µM | > 30 µM | > 30 µM | > 30 µM | > 30 µM | > 30 µM | > 30 µM | > 30 µM | > 30 µM | –
5 | C[C@]12CCC(=O)C=C1CC[C@@H]1[C@@H]2CC[C@@]2(C)[C@H]1CC[C@]2(C)O [METHYLTESTOSTERONE] | 22 µM | > 30 µM | > 30 µM | > 30 µM | > 30 µM | > 30 µM | > 30 µM | > 30 µM | > 30 µM | > 30 µM | > 30 µM | –
6 | Cc1cc(-c2ccccc2)nnc1NCCN1CCOCC1 [MINAPRINE] | 5.4 µM | > 10 µM | > 10 µM | > 30 µM | > 30 µM | 3.44 µM | > 10 µM | > 10 µM | > 30 µM | > 30 µM | > 30 µM | –
7 | NC(=O)C[S+]([O-])C(c1ccccc1)c1ccccc1 (centres undefined) [MODAFINIL] | > 10 µM | > 10 µM | > 10 µM | > 30 µM | > 30 µM | > 30 µM | > 10 µM | > 10 µM | > 30 µM | > 30 µM | 13.4 µM | –
8 | C1COC(NC(C2CC2)C2CC2)=N1 [RILMENIDINE] | > 10 µM | > 30 µM | 2.6 µM | > 30 µM | > 30 µM | > 30 µM | > 30 µM | > 10 µM | > 30 µM | > 30 µM | > 30 µM | –
9 | TOCOFERSOLAN | > 30 µM | > 30 µM | > 30 µM | > 30 µM | > 30 µM | – | > 30 µM | > 30 µM | > 30 µM | > 30 µM | > 30 µM | > 30 µM
